These results are taken from patent publication US8916559B2, “Crystalline compound of 7-[(3R)-3-amino-1-oxo-4-(2, 4, 5-trifluorophenyl)butyl]-5, 6, 7, 8-tetrahydro-3-(tri fluoromethyl)-1, 2, 4 -triazolo[4,3-A]pyrazin” (Sandoz AG, priority 2009, dated 2014).

Data set [1] can be described thus: Dynamic water vapor sorption measurements (hygroscopicity). The data set is classed as physicochemical. As to conditions: for H2O content at 50% r.h. / H2O content at 90% r.h.: dynamic water vapor sorption; for H2O content at 90% r.h.: 90% relative humidity; for hygroscopic behaviour (water adsorption, in words): identical measurement conditions, high relative humidities. The source says: Amorphous or mesomorphous forms of a compound can have a very much stronger tendency toward hygroscopicity than crystalline forms. The sitagliptin fumarate compounds described here are characterized in that they have good hygroscopic properties, i.e. absorb little water at high relative humidity. This is evident from table 1 below, which compares the water contents of the crystalline fumarate form A and crystalline hydrochloride at 50% and 90% relative humidity. The data originate from dynamic water vapor adsorption measurements. The water vapor sorption measurement is a suitable method for investigating the hygroscopic properties of solid substances. Water vapor sorption measurements can be carried out in different ways. In general, in this connection, a small sample of ca. 10-30 mg is introduced into a microbalance in a suitable sample carrier. The sample is then exposed to different relative humidities in accordance with a defined program, the change in the sample mass being simultaneously recorded over the time. As a result, insights into the hygroscopic behavior of a substance can be obtained.
Dynamic water vapor adsorption measurements were carried out using an SPS11-100n instrument, manufactured by “Projekt Messtechnik” in Ulm, Germany. For this, ca. 20 mg of the sample were weighed into an aluminum support and this was inserted into the measurement chamber of the instrument. The sample was then subjected to preselected relative humidities in accordance with a defined program, the change in mass being determined over the time. The following measurement program was used: 50% r.h. constant for two hours, then changing the relative humidity to 0% r.h., then changing the relative humidity to 96% r.h., constant at 96% r.h. for four hours and then changing the relative humidity to 50% r.h. and then constant at 50% r.h. for one hour. The change rates set were in each case 5% per hour.

For data set [2] the following is noted: at temperatures above 40° C.; hydrate of WO 2005/003135; cited from earlier work.
For data set [3] the following is noted: hydrochloride of WO 03/004498 A1; cited from earlier work.

Structures can show the parent of a compound that is named as a salt. Where only a bound is given, the exact number is not on record here.

As to `N[C@@H](CC(=O)N1CCn2c(nnc2C(F)(F)F)C1)Cc1cc(F)c(F)cc1F` [form A, 7-[(3R)-3-amino-1-oxo-4-(2,4,5-trifluorophenyl)butyl]-5,6,7,8-tetrahydro-3-(trifluoromethyl)-1,2,4-triazolo[4,3-a]pyrazine], the “water content at 50% relative humidity” value in data set [1] (50% relative humidity) is recorded as “ca. 0.3%”. Besides, the “H2O content at 50% r.h.” value in data set [1] (50% relative humidity, listed as Crystalline sitagliptin fumarate form A) was found to be 0.25%. Also, the “H2O content at 90% r.h.” value in data set [1] (listed as Crystalline sitagliptin fumarate form A) is recorded as 1.33%. Further, in data set [1] (after four hours at 96% relative humidity), the “additional water absorbed compared with 50% relative humidity” value is on record as “ca. 1%”. In addition, the “hygroscopic behaviour (water adsorption, in words)” value in data set [1] is recorded as “absorbs only a small amount of water”.

For `N[C@@H](CC(=O)N1CCn2c(nnc2C(F)(F)F)C1)Cc1cc(F)c(F)cc1F.O=P(O)(O)O` [sitagliptin dihydrogenphosphate salt], the “phase stability (in words)” value in data set [2] is “phase-unstable”.

Consider `N[C@@H](CC(=O)N1CCn2c(nnc2C(F)(F)F)C1)Cc1cc(F)c(F)cc1F` [sitagliptin hydrochloride], for which the “hygroscopicity (in words)” value in data set [3] is “hygroscopic”. In data set [1] (50% relative humidity, hydrochloride), the “H2O content at 50% r.h.” value is above 2.7%^. Moreover, the “H2O content at 90% r.h.” value in data set [1] (hydrochloride) was above 3.6%^. In addition, the “hygroscopic behaviour (water adsorption, in words)” value in data set [1] (listed as crystalline sitagliptin hydrochloride monohydrate, hydrochloride) is “adsorbs significantly more water”.
